Where two headings read alike, the source gives them in different places.
Experiments:
[1] = most potent of the male steroid hormones; cited from earlier work
tyrosine hydroxylase [2] = conditions: untransfected CHP-212 cells, DHT 0-1000 nM, forty-eight hours
Experimental: (§1) Human CHP-212 cells were purchased from ATCC and maintained in cell culture media, EMEM/F-12 (50%/50%) containing 10% FBS and antibiotics. Native SH-SY5Y cells were maintained in DMEM supplemented with 10% FBS and antibiotics. For immunofluorescence, cells were grown on coverslips. […] Rat tyrosine hydroxylase-luc reporter plasmid (Kim et al Biochem Biophys Res Commun. 2003 Dec. 26; 312(4):950-7) and the pTK-Renilla luciferase plasmid for transfection control were obtained from Promega (Madison, Wis.). Human androgen receptor expression construct PCMV-Flag-AR was kindly provided by Dr. E. Wilson^75. H2O2 and DHT were purchased from Sigma (St. Louis, Mo.).
(§2) The procedures for western blotting and immunoprecipitation were described previously^48. […]

CHP-212 cells = conditions: DJ-1 siRNA, 10 nM DHT, 300 μM H2O2
Experimental: Cells were re-plated and pretreated with 10 nM dihydroxytestosterone or vehicle control (ethanol) for twenty-four hours, followed by H2O2 (300 μM) treatment plus 10 nM dihydroxytestosterone or vehicle control for additional 24 hours. Cell toxicity was evaluated by MTT assay. Values are the mean±s.e.m. n=3 experiments; *: P=0.0068 (t-test).
To test whether dihydroxytestosterone can reverse this increased susceptibility, endogenous DJ-1 expression in CHP-212 cells was inhibited using DJ-1-specific siRNA. […] The siRNA treated cells were then further treated with 10 nM of dihydroxytestosterone in the presence or absence of 300 μM of H2O2.
CHP-212 cells or SH-SY5Y cells were plated in six-well culture dishes and transfected with 100 nM of siRNA against human DJ-1 constructs (SMARTpool reagent, Dharmacon, Lafayette, Colo.) or non-specific control siRNA constructs (siControl non-targeting pool, Dharmacon). […] Cells were harvested forty-eight hours post-transfection for RNA extraction or at Day 1,2, or 4 for Western blot or re-plated in 96 well plate for MTS assay at 48 hrs post-transfection.

tyrosine hydroxylase [3] = conditions: CHP-212 cells pre-transfected with DJ-1-specific siRNA, increasing amount of DHT for forty-eight hours
Experimental: The procedures for western blotting and immunoprecipitation were described previously^48. For DJ-1 immunoprecipitation, cells were lysed in denaturing RIPA-DOC buffer (50 mm Tris-HCl buffer (pH 8.0), containing 150 mM NaCl, 1% Triton X-100, 0.1% SDS, 1% sodium deoxycholate, 10 mM EDTA and a protease inhibitor cocktail (1× protease cocktail, Roche (Indianapolis, Ind.). For endogenous DJ-1 and PSF co-immunoprecipitation, cells were lysed in non-denaturing lysis buffer containing 1% Triton-X100. […] Antibody used for immunoprecipitation: rabbit polyclonal anti-DJ-15. Antibodies for western blotting include: a mouse monoclonal anti-tyrosine hydroxylase (Sigma); monoclonal (Stressgen, San Diego, Calif.) and polyclonal anti-DJ-1; a goat anti-β-actin (Santa Cruz Biotechnology, Santa Cruz, Calif.); a rabbit polyclonal anti-androgen receptor (Upstate, Charlottesville, Va.); a rabbit polyclonal anti-AKT and a mouse monoclonal anti-Phospho-AKT (Cell signaling, Beverly, Mass.). Antibodies used for immunoprecipitation included a mouse monoclonal anti-PSF (Sigma) and a rabbit polyclonal anti-DJ-1^18.

AKT = conditions: 10 nM DHT
Experimental: DJ-1 likely serves as a transcriptional co-activator of androgen receptor^50,51. To determine whether androgen receptor and androgen activate the AKT pathway in human dopaminergic cell lines, native SH-SY5Y cells were treated with 10 nM of […], and levels of phosphorylated AKT was assayed by Western blot. […] The role of androgen receptor signaling in the activation of AKT was also tested in SH-SY5Y cells that were transiently transfected with human androgen receptor then treated with […].
as §1, §2

Experimental for SH-SY5Y cells: FIG. 8A is a graph that quantifies relative cell viability in SH-SY5Y cells that were pretreated with dihydroxytestosterone (DHT) (1 or 10 nM) or vehicle control (Ethanol) for twenty-four hours, then were subjected to H2O2 (500 μM) treatment plus dihydroxytestosterone (1 or 10 nM) or vehicle control for an additional twenty-four hours. Cell toxicity was evaluated using a 3-(4,5-dimethylthiazol-2-yl)-2,5-diphenyltetrazolium bromide (MTT) assay. […] Cells were re-plated and pretreated with 10 nM dihydroxytestosterone or vehicle control (ethanol) for twenty-four hours, followed by H2O2 (300 μM) treatment plus 10 nM dihydroxytestosterone or vehicle control for additional 24 hours. Cell toxicity was evaluated by MTT assay. Values are the mean±s.e.m. n=3 experiments; *: P=0.0068 (t-test).
To evaluate whether dihydroxytestosterone similarly protects against oxidative stress-induced cell death in human dopaminergic neuroblastoma cells, SH-SY5Y cells were treated with increasing amount of dihydroxytestosterone in the presence or absence of 500 μM of hydrogen peroxide (H2O2). […] The siRNA treated cells were then further treated with 10 nM of dihydroxytestosterone in the presence or absence of 300 μM of H2O2.

SMILES: C[C@]12CCC(=O)C[C@@H]1CC[C@@H]1[C@@H]2CC[C@]2(C)[C@@H](O)CC[C@@H]12 [dihydroxytestosterone, dihydrotestosterone]
- activity relative to testosterone [1]: 10 times
- tyrosine hydroxylase protein levels (tyrosine hydroxylase [2]): dose-dependent increase
- cell death induced by oxidative stress (SH-SY5Y cells; DHT 1 or 10 nM pretreatment 24 h, then 500 μM H2O2 plus DHT 24 h): significantly blocked cell death
- effect on cell viability in the absence of H2O2 (SH-SY5Y cells; DHT 1 or 10 nM, no H2O2): subtle effect
- oxidative stress-induced cell death in DJ-1-specific siRNA treated cells (CHP-212 cells): significantly reduced oxidative stress-induced cell death
- rescue of tyrosine hydroxylase expression after DJ-1 inactivation (tyrosine hydroxylase [3]): fully rescued
- time of peak level of phosphorylated AKT after treatment (AKT; SH-SY5Y cells transiently transfected with Flag-AR): 15 min
- time of peak level of phosphorylated AKT after treatment (AKT; native SH-SY5Y cells): ninety
- AKT phosphorylation (AKT; native SH-SY5Y cells, 5-90 minutes, no increase of total AKT): rapid phosphorylation of AKT

From patent US20090325911A1, “Use of Androgens for the Treatment of Parkinson's Disease” (CARITAS ST. ELIZABETH MEDICAL CENTER OF BOSTON, INC., priority 2005, published 2009)
